Reference: US7671061B2, “Methods and compositions for treating pain” (Hydra Biosciences, Inc., priority 2005, dated 2010)

Experiments:
hTRPA1 [1] = target: T1, hTRPA1 (Homo sapiens, UniProt O75762, K186N); assay: TRPA1 patch clamp (perforated patch, AITC-activated current); assay type: cell-based
T1 construct: expressed in transfected cells; host or cells: HEK293/TREx (Invitrogen), induced with tetracycline
Excerpt: Patch clamp experiments permit the detection of currents through the TRPA1 channel in the cell line described above. To permit recording of current at a stable level and prevent the “rundown” observed by other labs, it is necessary to use the perforated patch technique, which prevents dialysis of the cytoplasm with the pipette solution. In normal whole-cell patch clamp recordings, a glass electrode is brought into contact with a single cell and a high-resistance (gigaohm) seal is established with the cell membrane. The membrane is then ruptured to achieve the whole-cell configuration, permitting control of the voltage of the cell membrane and measurement of currents flowing across the membrane using the amplifier attached to the electrode and resulting in the replacement of cytoplasm with the pipette solution. In contrast, in the perforated patch mode, an antibiotic, amphotericin, is present in the pipette solution and diffuses into contact with the cell after the seal is achieved, over the course of several minutes. The amphotericin forms ion-permeable pores in the membrane under the pipette, permitting passage of some ions but maintaining most native cytosolic components. A perfusion system permits control of the extracellular solution, including the addition of blockers and activators of the current. The current can be activated by addition of 5 μM AITC to the solution. […] In some cases, cells were grown in low density overnight on glass coverslips. Patch clamp recordings were made in the whole-cell mode with a holding potential of −40 mV. Every 5 seconds, a voltage ramp was applied from −120 to +100 mV, 400 ms in duration. Currents elicited were quantified at −80 mV and +80 mV. […] The external solution consisted of 150 mM NaCl, 4.5 mM KCl, 3 mM MgCl2, 10 mM HEPES, […], 1 mM EGTA, pH 7.4. Upon addition of AITC, TRPA1 current was induced only in TRPA1-expressing cells and not in parental HEK293 TREx cells. Removal of the AITC stimulus causes most of the current to go away. Potential blockers were tested for ability to block both inward and outward currents in the continued presence of AITC.

hTRPA1 [2] = target: T1, hTRPA1; assay: High throughput Ca2+ fluorescence (Fluo4) assay, AITC stimulation; assay type: cell-based
In short: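 Tetracycline-induced HEK293/TREx cells loaded with 1 μM Fluo4/AM for 60 min at room temperature. Compound added for 2 min after a 4-frame baseline, then AITC; fluorescence followed ~3 min.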

[3] = Table 1, read-out: hTRPA1 Fluo4 IC50
[4] = Table 1, read-out: hTRPA1 Patch IC50
[5] = Table 2, inward current, read-out: hTRPA1 Patch Inwd IC50
[6] = Table 2, read-out: hTRPA1 Fluor IC50

T1 sequence (O75762 whole entry K186N): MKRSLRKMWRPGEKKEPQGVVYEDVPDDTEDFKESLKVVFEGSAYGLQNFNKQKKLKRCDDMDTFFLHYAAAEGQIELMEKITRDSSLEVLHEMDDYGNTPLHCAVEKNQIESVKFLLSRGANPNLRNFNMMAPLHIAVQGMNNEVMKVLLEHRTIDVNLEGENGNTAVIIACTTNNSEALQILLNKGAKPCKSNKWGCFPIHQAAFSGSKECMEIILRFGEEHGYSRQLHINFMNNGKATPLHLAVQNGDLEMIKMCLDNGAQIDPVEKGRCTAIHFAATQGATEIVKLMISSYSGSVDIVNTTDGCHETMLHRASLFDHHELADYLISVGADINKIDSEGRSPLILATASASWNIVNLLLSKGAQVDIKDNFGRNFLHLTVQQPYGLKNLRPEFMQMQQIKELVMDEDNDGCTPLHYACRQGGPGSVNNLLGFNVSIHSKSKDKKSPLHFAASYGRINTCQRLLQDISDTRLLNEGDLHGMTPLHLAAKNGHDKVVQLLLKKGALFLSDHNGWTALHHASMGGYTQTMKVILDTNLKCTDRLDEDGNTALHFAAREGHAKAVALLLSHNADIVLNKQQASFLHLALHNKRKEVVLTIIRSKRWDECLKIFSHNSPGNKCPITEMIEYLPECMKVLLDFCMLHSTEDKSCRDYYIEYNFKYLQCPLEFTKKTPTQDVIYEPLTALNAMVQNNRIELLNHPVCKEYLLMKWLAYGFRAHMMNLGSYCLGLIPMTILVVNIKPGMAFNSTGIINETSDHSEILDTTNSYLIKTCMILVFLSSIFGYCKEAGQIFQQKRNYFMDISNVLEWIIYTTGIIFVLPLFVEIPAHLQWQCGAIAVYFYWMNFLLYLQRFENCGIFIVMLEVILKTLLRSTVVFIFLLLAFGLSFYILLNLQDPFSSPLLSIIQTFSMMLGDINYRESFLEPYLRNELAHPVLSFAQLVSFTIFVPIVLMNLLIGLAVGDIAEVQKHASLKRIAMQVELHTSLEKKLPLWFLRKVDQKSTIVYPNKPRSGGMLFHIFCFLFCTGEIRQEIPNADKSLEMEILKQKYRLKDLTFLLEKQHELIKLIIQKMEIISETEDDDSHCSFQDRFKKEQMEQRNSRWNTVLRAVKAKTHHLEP

SMILES | IC50 (hTRPA1 [2]; [3]) | IC50 (hTRPA1 [1]; [4]) | IC50 (hTRPA1 [1]; [5]) | IC50 (hTRPA1 [2]; [6]) | IC50 (hTRPA1 [1]; hTRPA1 Patch IC50 (nM), Table 1)
CCOC(=O)C1=C(C)NC(=S)NC1c1cccc(OC)c1 (stereo not shown) | ≤ 5 µM | – | – | – | ≤ 10000 nM
COC(=O)C1=C(C)NC(=S)NC1c1cc(C)ccc1C (stereo not shown) | ≤ 5 µM | ≤ 5000 nM | – | – | –
C=CCOc1cccc(C2NC(=S)NC(C)=C2C(=O)OCC)c1 (stereo not shown) | ≤ 5 µM | ≤ 1000 nM | – | – | –
CN(C)c1ccc(NC(=O)Cn2cnc3c2c(=O)n(C)c(=O)n3C)cc1 [Compound 201] | – | – | > 10000 nM | ≥ 20 µM | –
Cn1c(=O)c2c(ncn2CC(=O)NC(c2ccccc2)c2ccccc2)n(C)c1=O [Compound 203] | – | – | > 10000 nM | > 10 µM | –
Cc1cc(Br)ccc1NC(=O)Cn1cnc2c1c(=O)n(C)c(=O)n2C [Compound 204] | – | – | > 10000 nM | ≤ 10 µM | –
Cn1c(=O)c2c(ncn2CC(=O)NCc2cccnc2)n(C)c1=O [Compound 206] | – | – | ≤ 10000 nM | > 10 µM | –
COc1ccc(NC(=O)Cn2cnc3c2c(=O)n(C)c(=O)n3C)cc1 [Compound 207] | – | – | ≤ 10000 nM | > 10 µM | –
CCOc1ccc(NC(=O)Cn2cnc3c2c(=O)n(C)c(=O)n3C)cc1 [Compound 208] | – | – | > 10000 nM | ≤ 10 µM | –
Cn1c(=O)c2c(ncn2CC(=O)Nc2ccc([N+](=O)[O-])cc2)n(C)c1=O [Compound 210] | – | – | ≤ 10000 nM | ≥ 20 µM | –
Cn1c(=O)c2c(ncn2CC(=O)Nc2ccc(C(N)=O)cc2)n(C)c1=O [Compound 212] | – | – | > 10000 nM | > 10 µM | –
Cn1c(=O)c2c(ncn2CC(=O)Nc2ccc3ccccc3c2)n(C)c1=O [Compound 213] | – | – | > 10000 nM | ≤ 10 µM | –
Cn1c(=O)c2c(ncn2CC(=O)Nc2ccc(C#N)cc2)n(C)c1=O [Compound 214] | – | – | ≤ 10000 nM | ≤ 10 µM | –
Cn1c(=O)c2c(ncn2CC(=O)Nc2ccc(OCc3ccccc3)cc2)n(C)c1=O [Compound 224] | – | – | ≤ 5000 nM | ≤ 1 µM | –
Cn1c(=O)c2c(ncn2CC(=O)Nc2nccs2)n(C)c1=O [Compound 225] | – | – | > 10000 nM | > 10 µM | –
Cn1c(=O)c2c(ncn2CC(=O)Nc2ccc(S(N)(=O)=O)cc2)n(C)c1=O [Compound 228] | – | – | > 10000 nM | > 10 µM | –
Cn1c(=O)c2c(ncn2CC(=O)Nc2nc(-c3ccccc3)cs2)n(C)c1=O [Compound 230] | – | – | ≤ 10000 nM | ≤ 10 µM | –
COc1ccc2nc(NC(=O)Cn3cnc4c3c(=O)n(C)c(=O)n4C)sc2c1 [Compound 234] | – | – | ≤ 10000 nM | ≤ 5 µM | –

SMILES | IC50 (hTRPA1 [2]; [3]) | IC50 (hTRPA1 [1]; [4]) | IC50 (hTRPA1 [1]; [5]) | IC50 (hTRPA1 [2]; [6]) | IC50 (hTRPA1 [1]; hTRPA1 Patch IC50 (nM), Table 1)
Cn1c(=O)c2c(ncn2CC(=O)Nc2ccc3c(c2)OCO3)n(C)c1=O [Compound 237] | – | – | ≤ 10000 nM | > 10 µM | –
Cn1c(=O)c2c(ncn2CC(=O)Nc2ccc(Nc3ccccc3)cc2)n(C)c1=O [Compound 250] | – | – | ≤ 1000 nM | ≤ 5 µM | –
Cn1c(=O)c2c(ncn2CC(=O)Nc2ccc(N3CCCCC3)cc2)n(C)c1=O [Compound 252] | – | – | ≤ 10000 nM | ≤ 5 µM | –
Cn1c(=O)c2c(ncn2CC(=O)Nc2ccc(SC(F)F)cc2)n(C)c1=O [Compound 257] | – | – | ≤ 1000 nM | ≤ 1 µM | –
COc1ccc(CCNC(=O)Cn2cnc3c2c(=O)n(C)c(=O)n3C)cc1 [Compound 261, 2-(1,3-Dimethyl-2,6-dioxo-1,2,3,6-tetrahydropurin-7-yl)-N-[2-(4-methoxy-phenyl)-ethyl]-acetamide] | – | – | ≤ 5000 nM | ≤ 5 µM | –
Cn1c(=O)c2c(ncn2CC(=O)Nc2ccc(C34CC5CC(CC(C5)C3)C4)cc2)n(C)c1=O [Compound 264] | – | – | ≤ 500 nM | ≤ 5 µM | –
Cn1c(=O)c2c(ncn2CC(=O)Nc2ccc(Cl)c(C(F)(F)F)c2)n(C)c1=O [Compound 267] | – | – | ≤ 1000 nM | ≤ 1 µM | –
Cn1c(=O)c2c(ncn2CC(=O)NCCc2ccc(Cl)cc2)n(C)c1=O [Compound 268, N-[2-(4-Chlorophenyl)-ethyl]-2-(1,3-dimethyl-2,6-dioxo-1,2,3,6-tetrahydro-purin-7-yl)-acetamide] | – | – | ≤ 1000 nM | > 10 µM | –
CCCCc1ccc2nc(NC(=O)Cn3cnc4c3c(=O)n(C)c(=O)n4C)sc2c1 [Compound 269] | – | – | ≤ 1000 nM | ≤ 5 µM | –
CCCc1ccc(-c2csc(NC(=O)Cn3cnc4c3c(=O)n(C)c(=O)n4C)n2)cc1 [Compound 274] | – | – | ≤ 1000 nM | ≤ 5 µM | –
Cc1ccc(F)cc1NC(=O)Cn1cnc2c1c(=O)n(C)c(=O)n2C [Compound 277] | – | – | ≤ 10000 nM | > 10 µM | –
Cn1c(=O)c2c(ncn2CC(=O)Nc2ccc(F)c(Cl)c2)n(C)c1=O [Compound 281] | – | – | ≤ 10000 nM | ≤ 5 µM | –
Cn1c(=O)c2c(ncn2CC(=O)Nc2cccc(I)c2)n(C)c1=O [Compound 295] | – | – | ≤ 1000 nM | ≤ 5 µM | –
CCc1ccc(NC(=O)C(C)n2cnc3c2c(=O)n(C)c(=O)n3C)cc1 (stereo not shown) [Compound 299] | – | – | ≤ 10000 nM | ≤ 5 µM | –
CC(C(=O)Nc1ccc(Cl)cc1)n1cnc2c1c(=O)n(C)c(=O)n2C (stereo not shown) [Compound 300] | – | – | ≤ 1000 nM | ≤ 5 µM | –
Cc1ccccc1CNC(=O)Cn1cnc2c1c(=O)n(C)c(=O)n2C [Compound 313] | – | – | ≤ 10000 nM | > 10 µM | –
Cn1c(=O)c2c(ncn2CC(=O)NCCSCc2ccccc2)n(C)c1=O [Compound 329] | – | – | ≤ 10000 nM | ≤ 10 µM | –

Further lines, with some results ahead:

IC50 (hTRPA1 [2]; [3]) | IC50 (hTRPA1 [1]; [4]) | IC50 (hTRPA1 [1]; [5]) | IC50 (hTRPA1 [2]; [6]) | SMILES | IC50 (hTRPA1 [1]; hTRPA1 Patch IC50 (nM), Table 1)
≤ 5 µM | ≤ 1000 nM | – | – | COC(=O)C1=C(C)NC(=S)NC1c1cccc(Cl)c1Cl (stereo not shown) | –
– | – | > 10000 nM | ≤ 10 µM | Cn1c(=O)c2c(ncn2CC(=O)Nc2ccc(F)cc2)n(C)c1=O [Compound 209] | –
– | – | > 10000 nM | > 10 µM | Cn1c(=O)c2c(ncn2CC(=O)Nc2ccncc2)n(C)c1=O [Compound 211] | –
– | – | ≤ 1000 nM | ≤ 5 µM | COc1cc([N+](=O)[O-])ccc1NC(=O)Cn1cnc2c1c(=O)n(C)c(=O)n2C [Compound 229] | –
– | – | ≤ 5000 nM | ≤ 5 µM | Cc1ccc2nc(NC(=O)Cn3cnc4c3c(=O)n(C)c(=O)n4C)sc2c1 [Compound 233] | –
– | – | ≤ 10000 nM | > 10 µM | CC(C)Cc1nnc(NC(=O)Cn2cnc3c2c(=O)n(C)c(=O)n3C)s1 [Compound 235] | –
– | – | ≤ 1000 nM | ≤ 5 µM | Cn1c(=O)c2c(ncn2CC(=O)Nc2ccc(Cl)cc2)n(C)c1=O [Compound 251] | –
– | – | ≤ 500 nM | ≤ 5 µM | Cn1c(=O)c2c(ncn2CC(=O)Nc2ccc(Oc3ccccc3)cc2)n(C)c1=O [Compound 262] | –
– | – | ≤ 500 nM | ≤ 5 µM | Cc1ccc(Oc2ccc(NC(=O)Cn3cnc4c3c(=O)n(C)c(=O)n4C)cc2)cc1 [Compound 266] | –
– | – | ≤ 1000 nM | ≤ 5 µM | Cn1c(=O)c2c(ncn2CC(=O)Nc2ccc(-c3ccccc3)cc2)n(C)c1=O [Compound 294] | –
– | – | ≤ 10000 nM | ≤ 5 µM | CC(C(=O)Nc1ccc(Br)cc1)n1cnc2c1c(=O)n(C)c(=O)n2C (stereo not shown) [Compound 296] | –
– | – | ≤ 10000 nM | > 10 µM | Cn1c(=O)c2c(ncn2CC(=O)Nc2c(Cl)cccc2Cl)n(C)c1=O [Compound 305] | –
– | – | ≤ 1000 nM | > 10 µM | Cc1ccc(NC(=O)C(C)n2cnc3c2c(=O)n(C)c(=O)n3C)cc1 (stereo not shown) [Compound 315] | –
– | – | ≤ 1000 nM | ≤ 5 µM | Cn1c(=O)c2c(ncn2CC(=O)Nc2ccc(Br)cc2Cl)n(C)c1=O [Compound 333] | –
– | – | ≤ 5000 nM | ≤ 5 µM | Cn1c(=O)c2c(ncn2CC(=O)Nc2ccc3c(c2)OC2(CCCC2)O3)n(C)c1=O [Compound 344] | –
